Assays:
Format in all cases: functional, cell-based
A549 = assay: Cytotoxicity was evaluated against A549 non-small cell lung carcinoma human cancer cell line
HT-29 = assay: Cytotoxicity was evaluated against HT-29 colon carcinoma human cancer cell line
MCF7R = assay: Cytotoxicity was evaluated against MCF7-R (mammary carcinoma 180-fold resistant to doxorubicin, expressing MDR phenotype) human breast cancer cell line
MCF7 = assay: Cytotoxicity was evaluated against MCF-7 mammary carcinoma human breast cancer cell line
A121 = assay: Cytotoxicity was evaluated against A121 ovarian carcinoma human cancer cell line

`CC(=O)O[C@@]12CO[C@@H]1C[C@H](O)[C@@]1(C)C(=O)[C@H](OC(=O)C3CC3)C3=C(C)[C@@H](OC(=O)[C@H](O)[C@@H](NC(=O)OC(C)(C)C)C(F)(F)F)C[C@@](O)([C@@H](OC(=O)c4ccccc4)[C@H]21)C3(C)C` was tested, and the IC50 (A549) was 400 pM, the IC50 (HT-29) was 500 pM and the IC50 (MCF7R) was 16000 pM. The IC50 (MCF7) was 500 pM and the IC50 (A121) was 400 pM.
`CC(=O)O[C@@]12CO[C@@H]1C[C@H](O)[C@@]1(C)C(=O)[C@H](O)C3=C(C)[C@@H](OC(=O)[C@H](O)[C@@H](NC(=O)OC(C)(C)C)C(F)(F)F)C[C@@](O)([C@@H](OC(=O)c4ccccc4)[C@H]21)C3(C)C` gave an IC50 (A549) of 440 pM, an IC50 (HT-29) of 650 pM and an IC50 (MCF7R) of 156000 pM. It also gave an IC50 (MCF7) of 440 pM and an IC50 (A121) of 1150 pM.
In the case of `CC(=O)O[C@@]12CO[C@@H]1C[C@H](O)[C@@]1(C)C(=O)[C@H](OC(=O)CC(C)(C)C)C3=C(C)[C@@H](OC(=O)[C@H](O)[C@@H](NC(=O)OC(C)(C)C)C(F)(F)F)C[C@@](O)([C@@H](OC(=O)c4ccccc4)[C@H]21)C3(C)C`, the IC50 (A549) is reported as 500 pM, the IC50 (HT-29) is reported as 600 pM and the IC50 (MCF7R) is reported as 12000 pM. It also gave an IC50 (MCF7) of 500 pM and an IC50 (A121) of 500 pM.
Molecule `COC(=O)O[C@H]1C(=O)[C@@]2(C)[C@H]([C@H](OC(=O)c3ccccc3)[C@]3(O)C[C@H](OC(=O)[C@H](O)[C@@H](NC(=O)OC(C)(C)C)C(F)(F)F)C(C)=C1C3(C)C)[C@]1(OC(C)=O)CO[C@@H]1C[C@@H]2O` has an IC50 (A549) of 200 pM, an IC50 (HT-29) of 400 pM and an IC50 (MCF7R) of 21000 pM. It also gave an IC50 (MCF7) of 400 pM and an IC50 (A121) of 300 pM.
For `CCCCC(=O)O[C@H]1C(=O)[C@@]2(C)[C@H]([C@H](OC(=O)c3ccccc3)[C@]3(O)C[C@H](OC(=O)[C@H](O)[C@@H](NC(=O)OC(C)(C)C)C(F)(F)F)C(C)=C1C3(C)C)[C@]1(OC(C)=O)CO[C@@H]1C[C@@H]2O`, the IC50 (A549) was 800 pM, the IC50 (HT-29) was 1400 pM and the IC50 (MCF7R) was 26000 pM. For the same molecule, the IC50 (MCF7) was 700 pM and the IC50 (A121) was 700 pM.
`CC(=O)O[C@H]1C(=O)[C@@]2(C)[C@H]([C@H](OC(=O)c3ccccc3)[C@]3(O)C[C@H](OC(=O)[C@H](O)[C@@H](NC(=O)OC(C)(C)C)C(F)(F)F)C(C)=C1C3(C)C)[C@]1(OC(C)=O)CO[C@@H]1C[C@@H]2O` was tested, and the IC50 (A549) was 200 pM, the IC50 (HT-29) was 400 pM and the IC50 (MCF7R) was 156000 pM. It also gave an IC50 (MCF7) of 600 pM and an IC50 (A121) of 300 pM.
For `CC(=O)O[C@@]12CO[C@@H]1C[C@H](O)[C@@]1(C)C(=O)[C@H](OC(=O)N3CCOCC3)C3=C(C)[C@@H](OC(=O)[C@H](O)[C@@H](NC(=O)OC(C)(C)C)C(F)(F)F)C[C@@](O)([C@@H](OC(=O)c4ccccc4)[C@H]21)C3(C)C`, the IC50 (A549) was 400 pM, the IC50 (HT-29) was 400 pM and the IC50 (MCF7R) was 48000 pM. The IC50 (MCF7) was 400 pM and the IC50 (A121) was 500 pM.
`CC(=O)O[C@@]12CO[C@@H]1C[C@H](O)[C@@]1(C)C(=O)[C@H](OC(=O)N(C)C)C3=C(C)[C@@H](OC(=O)[C@H](O)[C@@H](NC(=O)OC(C)(C)C)C(F)(F)F)C[C@@](O)([C@@H](OC(=O)c4ccccc4)[C@H]21)C3(C)C` was tested, and the IC50 (A549) was 200 pM, the IC50 (HT-29) was 400 pM and the IC50 (MCF7R) was 17000 pM. It also gave an IC50 (MCF7) of 600 pM and an IC50 (A121) of 300 pM.
`CCC(=O)O[C@H]1C(=O)[C@@]2(C)[C@H]([C@H](OC(=O)c3ccccc3)[C@]3(O)C[C@H](OC(=O)[C@H](O)[C@@H](NC(=O)OC(C)(C)C)C(F)(F)F)C(C)=C1C3(C)C)[C@]1(OC(C)=O)CO[C@@H]1C[C@@H]2O` showed an IC50 (A549) of 300 pM, an IC50 (HT-29) of 400 pM and an IC50 (MCF7R) of 14000 pM. For the same molecule, the IC50 (MCF7) was 300 pM and the IC50 (A121) was 300 pM.
